Tests used:
LOLRI [1] = experiment: Pre-emergence herbicidal effect against LOLRI; type: in vivo, Lolium rigidum; conditions: 320 g/ha, scored visually after 3 weeks vs untreated controls, 100% = plants have died
Source text: (§1) Seeds of monocotyledonous and dicotyledonous weed plants and crop plants are laid out in sandy loam soil in wood-fiber pots and covered with soil. The compounds of the invention, formulated in the form of wettable powders (WP) or as emulsion concentrates (EC), are then applied to the surface of the covering soil as aqueous suspension or emulsion at a water application rate equating to 600 to 800 L/ha with addition of 0.2% wetting agent.
(§2) After the treatment, the pots are placed in a greenhouse and kept under good growth conditions for the trial plants. The damage to the test plants is scored visually after a test period of 3 weeks by comparison with untreated controls (herbicidal activity in percent (%): 100% activity=the plants have died, 0% activity=like control plants).

ALOMY [2] = experiment: Post-emergence herbicidal effect against ALOMY; type: in vivo, Alopecurus myosuroides; conditions: one-leaf stage, 80 g/ha, assessed visually after about 3 weeks vs untreated controls, 100% = plants have died
Protocol: (§3) Seeds of monocotyledonous and dicotyledonous weed and crop plants are laid out in sandy loam soil in wood-fiber pots, covered with soil and cultivated in a greenhouse under good growth conditions. 2 to 3 weeks after sowing, the test plants are treated at the one-leaf stage. The compounds of the invention, formulated in the form of wettable powders (WP) or as emulsion concentrates (EC), are then sprayed onto the green parts of the plants as aqueous suspension or emulsion at a water application rate equating to 600 to 800 l/ha with addition of 0.2% wetting agent. After the test plants have been left to stand in the greenhouse under optimal growth conditions for about 3 weeks, the action of the preparations is assessed visually in comparison to untreated controls (herbicidal action in percent (%): 100% activity=the plants have died, 0% activity=like control plants).

SETVI [3] = experiment: Pre-emergence herbicidal effect against SETVI; type: in vivo, Setaria viridis; conditions: 320 g/ha, scored visually after 3 weeks vs untreated controls, 100% = plants have died
Source text: as §1, §2

SETVI [4] = experiment: Post-emergence herbicidal effect against SETVI; type: in vivo, Setaria viridis; conditions: one-leaf stage, 80 g/ha, assessed visually after about 3 weeks vs untreated controls, 100% = plants have died
Protocol: as §3

ECHCG [5] = experiment: Pre-emergence herbicidal effect against ECHCG; type: in vivo, Echinochloa crus-galli; conditions: 320 g/ha, scored visually after 3 weeks vs untreated controls, 100% = plants have died
Source text: as §1, §2

ALOMY [6] = experiment: Pre-emergence herbicidal effect against ALOMY; type: in vivo, Alopecurus myosuroides; conditions: 320 g/ha, scored visually after 3 weeks vs untreated controls, 100% = plants have died
Source text: as §1, §2

AVEFA [7] = experiment: Pre-emergence herbicidal effect against AVEFA; type: in vivo, Avena fatua; conditions: 320 g/ha, scored visually after 3 weeks vs untreated controls, 100% = plants have died
Source text: as §1, §2

DIGSA [8] = experiment: Pre-emergence herbicidal effect against DIGSA; type: in vivo, Digitaria sanguinalis; conditions: 320 g/ha, scored visually after 3 weeks vs untreated controls, 100% = plants have died
Source text: as §1, §2

DIGSA [9] = experiment: Post-emergence herbicidal effect against DIGSA; type: in vivo, Digitaria sanguinalis; conditions: one-leaf stage, 80 g/ha, assessed visually after about 3 weeks vs untreated controls, 100% = plants have died
Protocol: as §3

ECHCG [10] = experiment: Post-emergence herbicidal effect against ECHCG; type: in vivo, Echinochloa crus-galli; conditions: one-leaf stage, 80 g/ha, assessed visually after about 3 weeks vs untreated controls, 100% = plants have died
Protocol: as §3

LOLRI [11] = experiment: Post-emergence herbicidal effect against LOLRI; type: in vivo, Lolium rigidum; conditions: one-leaf stage, 80 g/ha, assessed visually after about 3 weeks vs untreated controls, 100% = plants have died
Protocol: as §3

AVEFA [12] = experiment: Post-emergence herbicidal effect against AVEFA; type: in vivo, Avena fatua; conditions: one-leaf stage, 80 g/ha, assessed visually after about 3 weeks vs untreated controls, 100% = plants have died
Protocol: as §3

Row | Compound | Pre-emergence action [%] against LOLRI (LOLRI [1]) [%] | Post-emergence action [%] against ALOMY (ALOMY [2]) [%] | Pre-emergence action [%] against SETVI (SETVI [3]) [%] | Post-emergence action [%] against SETVI (SETVI [4]) [%] | Pre-emergence action [%] against ECHCG (ECHCG [5]) [%] | Pre-emergence action [%] against ALOMY (ALOMY [6]) [%] | Pre-emergence action [%] against AVEFA (AVEFA [7]) [%] | Pre-emergence action [%] against DIGSA (DIGSA [8]) [%] | Post-emergence action [%] against DIGSA (DIGSA [9]) [%] | Post-emergence action [%] against ECHCG (ECHCG [10]) [%] | Post-emergence action [%] against LOLRI (LOLRI [11]) [%] | Post-emergence action [%] against AVEFA (AVEFA [12]) [%]
1 | CC#Cc1cc(Cl)c(C2=C(OC(=O)OCC)C3(CCC(OCCOC)CC3)NC2=O)c(CC)c1 (centres unmarked) [Example P23] | 100 | 80 | 100 | 80 | 100 | 100 | 80 | 100 |  |  |  | 
2 | CC#Cc1cc(Cl)c(C2=C(OC(=O)OCC)C3(CCC(OCC)CC3)NC2=O)c(CC)c1 (centres unmarked) [Example P22] | 100 |  | 100 | 100 | 100 | 100 | 90 | 100 | 90 | 90 |  | 
3 | CC#Cc1cc(Cl)c(C2=C(OC(=O)C(C)C)C3(CCC(OC)CC3)NC2=O)c(CC)c1 (centres unmarked) [Example P25] | 90 | 90 | 100 | 100 | 100 | 100 | 100 | 100 | 100 | 100 |  | 
4 | CC#Cc1cc(C)c(C2=C(OC(=O)OCC)C3(CCCC(OCC(C)C)C3)NC2=O)c(Cl)c1 (centres unmarked) [Example Q8] | 100 | 100 | 100 | 100 | 100 | 100 | 100 | 100 |  | 100 | 90 | 100
5 | CC#Cc1cc(Br)c(C2=C(OC(=O)OCC)C3(CCC(OC)CC3)NC2=O)c(C2CC2)c1 (centres unmarked) [Example P35] | 100 | 100 | 100 | 100 | 100 | 100 | 100 | 100 | 100 | 100 | 100 | 
6 | CC#Cc1cc(Br)c(C2=C(OC(=O)OCC)C3(CCCC(OCCOC)C3)NC2=O)c(CC)c1 (centres unmarked) [Example Q1] | 90 | 80 | 100 | 90 |  | 90 |  |  |  |  |  | 
7 | CC#Cc1cc(C)c(C2=C(OC(=O)OC(C)(C)C)C3(CCCC(OCC(C)C)C3)NC2=O)c(Cl)c1 (centres unmarked) [Example Q7] |  |  | 100 |  |  | 80 |  |  |  |  |  | 
8 | CC#Cc1cc(Cl)c(C2=C(OC(=O)OC(C)(C)C)C3(CCC(OC)CC3)NC2=O)c(CC)c1 (centres unmarked) [Example P30] | 100 | 90 | 100 | 100 | 90 | 100 | 80 | 100 |  |  |  | 80
9 | CC#Cc1cc(Cl)c(C2=C(OC(=O)OC)C3(CCC(OCC)CC3)NC2=O)c(CC)c1 (centres unmarked) [Example P26] | 100 | 90 | 100 | 90 | 90 | 100 | 90 | 100 | 80 | 100 |  | 
10 | CC#Cc1cc(Br)c(C2=C(OC(=O)OCC)C3(CCC(OC)CC3)NC2=O)c(CC)c1 (centres unmarked) [Example P34] |  | 100 | 100 | 100 |  |  |  |  |  | 90 |  | 
11 | CC#Cc1cc(Br)c(C2=C(O)C3(CCCC(OCCOC)C3)NC2=O)c(CC)c1 (centres unmarked) [Example D8] |  | 100 | 100 | 90 |  | 80 |  |  |  | 90 | 80 | 80
12 | CC#Cc1cc(Cl)c(C2=C(OC(=O)OC(C)(C)C)C3(CCC(OCCOC)CC3)NC2=O)c(CC)c1 (centres unmarked) [Example P29] |  |  | 80 | 90 | 90 | 80 | 80 | 90 |  | 90 |  | 
13 | CC#Cc1cc(Cl)c(C2=C(OC(=O)OC)C3(CCC(OCCOC)CC3)NC2=O)c(CC)c1 (centres unmarked) [Example P28] |  |  | 100 | 80 | 100 | 100 | 80 | 100 |  | 80 |  | 
14 | CC#Cc1cc(C)c(C2=C(OC(=O)OCC)C3(CCCC(OCCC)C3)NC2=O)c(Br)c1 (centres unmarked) [Example Q3] | 100 | 100 | 100 | 100 | 100 | 100 | 100 | 100 | 100 | 100 | 100 | 
15 | CC#Cc1cc(C)c(C2=C(OC(=O)C(C)C)C3(CCC(CC)CC3)NC2=O)c(Cl)c1 (centres unmarked) [Example P1, 3-[2-Chloro-6-methyl-4-(prop-1-yn-1-yl)phenyl]-8-ethyl-2-oxo-1-azaspiro[4.5]dec-3-en-4-yl 2-methylpropanoate] |  |  |  | 100 |  |  |  |  |  |  |  | 
16 | CC#Cc1cc(Br)c(C2=C(OC(=O)OCC)C3(CCCC(OCCOC)C3)NC2=O)c(C2CC2)c1 (centres unmarked) [Example Q2] | 100 | 100 | 100 | 100 | 100 | 100 | 100 | 100 | 100 | 100 | 100 | 
17 | CC#Cc1cc(Cl)c(C2=C(OC(=O)C(C)C)C3(CCC(OCC)CC3)NC2=O)c(CC)c1 (centres unmarked) [Example P31] | 100 | 100 | 100 | 100 | 100 | 100 | 90 | 100 |  |  |  | 
18 | CC#Cc1cc(Cl)c(C2=C(OC(=O)C(C)C)C3(CCC(OCCOC)CC3)NC2=O)c(CC)c1 (centres unmarked) [Example P32] | 90 |  | 100 | 90 | 100 | 100 |  | 90 |  |  |  | 
